row,melting point,SMILES
1,178 to 182 °C,C#CC1(OC(C)=O)CCC2C3CCc4cc(OC)ccc4C3CCC21CC (stereo unspecified)
2,210 to 212 °C,O=C1CCC(c2ccccc2F)c2ccccc2N1 (stereo unspecified)
3,160 °C,O=C(Oc1cccc2ccccc12)n1c2c(c(=O)n(C3CCCCO3)c1=O)CCC2 (stereo unspecified)
4,56 to 58 °C,COC(=O)c1ccc2c(c1CBr)OCO2
5,195 to 196 °C,CC(=O)Nc1c(C(=O)c2cccc(C)n2)[nH]c2cc(Cl)ccc12
6,151 to 152 °C,O=c1[nH][nH]c(C(F)(F)F)c1Cc1ccc(Cl)cc1
7,100 to 112 °C,O=CC(=O)c1ccc2c(c1)CCC2
8,119 to 120 °C,CCOC(=O)C(C)(C#N)c1ccc2c(c1)Cc1cccnc1O2 (stereo unspecified)
9,135 to 137 °C,OCCc1ccc2c(c1)C(O)c1ccccc1CO2 (stereo unspecified)
10,107 to 109 °C,O=Cc1ccc(OC2CCCC2)c(O)c1Br
11,120 °C,O=C(O)Cc1ccc(C(=O)c2cccc(C(F)(F)F)c2)s1
12,116 °C,CC(C)Nc1cccnc1N1CCN(C(=O)c2ccc(C(=O)NCCOCCO)cc2)CC1
13,176 to 177 °C,CON1CCC2(CC1)NC(=O)C(c1cc(C)ccc1C)=C2O
14,114 to 115 °C,COC(=O)C(=O)c1ccc(C(=O)NCCOc2ccc3ccccc3c2)cc1
15,141 to 142 °C,CC(=O)N(CCCC(=O)O)C1CCCc2ccccc21 (stereo unspecified)
16,125 to 126 °C,CCOC(=O)c1cn(-c2ccc(OC)c(OC)c2)cn1
17,72 to 75 °C,COC(=O)c1nccnc1Nc1ccccc1
18,> 300 °C,CCn1cc(C(=O)O)c(=O)c2ccc(N3CCN(c4ncccn4)CC3)c(OC(F)F)c21

row,melting point,SMILES
1,278 to 290 °C,COc1ccc2nc3ccc(C(=O)O)cn3c(=O)c2c1
2,120 to 121 °C,CN(C)C(=S)SC(C[N+](=O)[O-])c1cc([N+](=O)[O-])ccc1Cl (stereo unspecified)
3,85 to 86 °C,Cc1c(-c2ccccc2)oc2c(C(=O)OCCN3CCCCC3)cccc2c1=O
4,143 to 144 °C,CN1CCN(CC(=O)N2c3ccccc3N(C)S(=O)(=O)c3ccccc32)CC1
5,74 to 76 °C,C=CCOc1ccc(C=NO)c(O)c1
6,63 to 64 °C,CCOC(=O)C1=C(Cl)/C(=N/OS(C)(=O)=O)CC(c2ccc(Cl)cc2F)N1 (stereo unspecified)
7,122 to 124 °C,CCC12CCC3=C(CCc4cc(OC(C)=O)ccc43)C1=CCC2=O (stereo unspecified)
8,175 to 177 °C,O=[N+]([O-])c1ccc2[nH]cc(C3=CCC4(CC3)OCCO4)c2c1
9,230 °C,COC(=O)c1ccccc1NC(=O)N1CCc2cc(S(=O)(=O)N3CCN(c4cccc(Cl)c4)CC3)ccc21
10,184 to 186 °C,NC(=O)Cc1cccc(C(=O)c2ccc(F)cc2)c1N
11,149 to 154 °C,CN1C(=O)NC(=O)C1=Cc1cc(OCCCC(=O)N(C)C2CCCCC2)ccc1[N+](=O)[O-]
12,178 to 180 °C,COc1cc2c(c(C(N)=O)c1OC)CCNCC2c1ccccc1 (stereo unspecified)
13,200 to 202 °C,NC(=O)c1cc2cc(Cl)ccc2o1
14,129 to 130 °C,Cc1ccc(S(=O)(=O)NC2CCCC2NC(=O)OC(C)(C)C)cc1 (stereo unspecified)
15,205 °C,COCCNC(=O)c1ccc(/C=C/C(=O)O)cc1
16,63 to 67 °C,COC(=O)/C=C/c1cc(Br)cs1
17,190 to 191 °C,COc1cc2ncnc(N3CCc4cc(F)ccc43)c2cc1OC
18,179 to 181 °C,Nc1sc2c(c1C(=O)c1ccc(Cl)c3ccccc13)CCCC2

# Second part, the compound before the results:
row,SMILES,melting point
1,NCC1=CC(c2ccccc2)Cc2c(O)cccc21 (stereo unspecified),102 to 104 °C
2,COc1cccc(C(O)CNCCN)c1 (stereo unspecified),50 °C
3,CC1(C)OC(c2ccc(S(N)(=O)=O)cc2)=C(c2ccc3c(c2)OCO3)C1=O,178 to 179 °C
4,N#Cc1n[nH]c(N)c1SC(F)(F)F,187 °C
5,C#CCCCc1c2c(nn1CCC)c(N)nc1ccccc12,144 to 145 °C
6,COC(=O)C(NS(=O)(=O)c1ccc(-c2ccc(NC(=O)c3oc4cccc(C(C)=O)c4c3C)cc2)cc1)C(C)C (stereo unspecified),197 to 199 °C
7,COc1cc(OC)c2c(c1)OC(C(C)(C)C(N)=O)CC2=O (stereo unspecified),161 to 163 °C
8,COc1nscc1C(=O)O,182 to 185 °C
9,CCCCOc1ccc(-c2nnc(Nc3ccc(Cl)c(Cl)c3)s2)cc1,233 to 235 °C
10,CC#CC(O)(C#CC)C1(Cl)CC(c2ccccc2)=CC=C1N (stereo unspecified),112 to 114 °C
11,COc1cc2c(Nc3cc(OC)c(OC)c(OC)c3)c(C#N)cnc2cc1F,215 to 217 °C
12,CN1c2c(oc(=O)n(-c3ncccn3)c2=O)-c2ccccc2S1(=O)=O,282 to 284 °C
13,O=C(O)CCCCOc1ccccc1Cl,71 to 72 °C
14,Cc1cccc(-c2nc(N)ncc2-c2ccc(=O)n(C)n2)c1,214 °C
15,CCCCNS(=O)(=O)CC(O)(CCCC)C(N)C(O)CC1CCCCC1 (stereo unspecified),164 to 165 °C
16,CC[C@@]1(O)C(=O)OCc2c1cc1n(c2=O)Cc2c-1nc1ccc(C)c3c1c2C(NC(C)=O)CN3 (stereo partly specified),225 to 235 °C
17,C=C(C)COc1ccc(C(=O)C=Cc2ccc(F)cc2)c2oc3ccccc3c(=O)c12,135 to 137 °C
18,CCCOc1ccc2ccccc2c1-c1c(OCCC)ccc2ccccc12,87 °C
19,CCCc1cccc(Cl)c1C(=O)N[C@@H](Cc1ccc(-c2c(C)n(C)c(=O)n(C)c2=O)cc1)C(=O)O,205 to 209 °C
20,CCOC(=O)c1cc([N+](=O)[O-])c(Cl)nc1C(=O)OCC,70 to 72 °C
21,CCc1nccn2c(-c3ccnc(NCC(C)(C)O)n3)c(-c3ccc(F)cc3F)nc12,164 to 165 °C
22,COC(=O)n1nnnc1-c1cnc2ccccn2c1=O,182 to 183 °C

row,SMILES,melting point
1,O=c1ccn(-c2cccc(F)c2)nc1-c1ccnn1-c1ccccc1,170 to 171 °C
2,CCCc1cc(COc2cc(CC)nc(C)c2OC)ccc1-c1ccccc1S(=O)(=O)Nc1noc(C)c1C,63 to 65 °C
3,CN(C)[C@H]1CC[C@@H](C(=O)N2CCC(c3[nH]nc4c3C(=O)c3c(NC(=O)NN5CCOCC5)cccc3-4)CC2)CC1,123 to 125 °C
4,CCOC(=O)COc1ccc(C[C@H](C)NS(=O)(=O)c2ccccc2)cc1,109 to 110 °C
5,CCCc1c(OCCCOc2ccc(-c3cscn3)c(OC)c2CCC)ccc2c1OC(CCC(=O)O)CC2 (stereo unspecified),110 to 113 °C
6,COc1ccc(C=NNc2ccc(S(N)(=O)=O)cc2)cc1,228 to 231 °C
7,Cc1ccc(-c2nnc3cc(-c4ccccc4)c(OCc4ncn(C)n4)nn23)s1,209 to 210 °C
8,OC(CCCN1CC=C(c2ccc(Cl)cc2)CC1)c1ccc(Cc2ccc(Cl)cc2)cc1 (stereo unspecified),104 to 105 °C
9,CCOC(=O)COc1ccc2nc(CC)cc(OCc3ccc(-c4ccccc4-c4nnn(C(c5ccccc5)(c5ccccc5)c5ccccc5)n4)cc3)c2n1,146 to 150 °C
10,Cc1nc2ccc3c(c2nc1C)OC(CN1CC=C(c2c[nH]c4ccc(F)cc24)CC1)CO3 (stereo unspecified),138 to 141 °C
11,COC(=O)c1c(Cl)cc(Cl)cc1NC(=O)CSc1ccc(NC(=O)c2cccnc2)cc1,156 to 159 °C
12,CCc1nc2c(-c3ccc(OC(F)(F)F)cc3Cl)ncnc2n1C(C1CC1)C1CC1,119 to 120 °C
13,CC(C)Oc1cc(CCCOc2nn(Cc3ccccc3)cc2CC(=O)O)n(Cc2ccc(Cl)cc2OC(C)C)n1,113 to 115 °C
14,CC(C)(C)COc1cccc(C[C@H](N)[C@H](O)c2cccc(Cl)c2)c1 (racemic),115 to 116 °C
15,O=C(NS(=O)(=O)c1ccccc1-c1ccccc1)Oc1ccccc1,114 to 117 °C
16,CS(=O)(=O)OCCC1c2ccccc2C(=O)N1c1ccccc1 (stereo unspecified),100 to 101 °C
17,CNC(=O)Nc1cc(C(C)(C)C)on1,187 to 188 °C
18,CN1C(=O)C(=C(Nc2ccc(-c3cn(C)cn3)cc2)c2ccc(CN)cc2)c2ccccc21,> 300 °C
19,N#Cc1nn(-c2c(Cl)cc(C(F)(F)F)cc2Cl)cc1-c1ccoc1Cl,125 °C
20,COc1ccc(-c2c(Cl)c(CN3C(=O)CCC3=O)nc3sc4c(F)c(OC)ccc4c23)cc1,215 to 216 °C
21,O=CN(c1cccc(C(F)(F)F)c1)c1cccc(C(F)(F)F)c1,63 to 65 °C
22,O=C1N(c2ccccc2Br)Cc2cnc(Nc3ccccc3)nc2N1c1cccc2ccccc12,120 to 125 °C

row,SMILES,melting point
1,O=C1c2ccccc2CN1CCSc1ccncc1,86 to 87 °C
2,COc1cc(/C=C/C(=O)CC(=O)/C=C/c2cccc(O)c2OC)ccc1O,152 to 155 °C
3,CCCOc1cc(CCCOc2c(CC(=O)O)cccc2OC)n(Cc2ccc3ccccc3n2)n1,97 to 98 °C
4,CS(=O)(=O)c1ccc(-c2nc(C(F)(F)F)nc(NN)c2-c2ccc(F)cc2)cc1,286 to 290 °C
5,CCOC(=O)Cc1sc(Sc2cc(C(=O)OCC)nc(SC)n2)nc1C,69 to 71 °C
6,CCC(C)n1c(=O)nc(SC)[nH]c1=O (stereo unspecified),134 to 136 °C
7,CNC(=O)C(CC(=O)N(CC(=O)NO)CC(C)C)CC(C)C (stereo unspecified),60.5 to 61.5 °C
8,O=Cc1cnn(Cc2ccccc2)c1-c1ccccc1,99 to 100 °C
9,CCC/C=C/C(=O)NC(=O)OC(C)(C)C,71 to 72 °C
10,CNC(=O)ON=C1COCCS1,105 to 106 °C
11,COc1ccc(CNc2nccc(-c3c[nH]nc3-c3ccc(F)cc3)n2)cc1,183 to 185 °C
12,CCCn1c(=O)c2[nH]c(/C=C/c3cccs3)nc2n(CCC)c1=O,270 °C
13,ClCCN1CCC(=C(c2ccccc2)c2ccccc2)CC1,85 to 86 °C
14,FC(F)(F)Oc1ccc(C2N=C(Nc3cccc(-c4cncnc4)c3)n3ccnc32)cc1 (stereo unspecified),120 to 130 °C
15,N#Cc1cnc2c(c1Nc1cccc(Br)c1)C=C1N=CN=C1C2,286 to 288 °C
16,O=C(NCCCCOc1ccc(-n2ccnc2)cc1)c1ccc(I)cc1,143 to 145 °C
17,Cc1ccc2c(c1O)N=CC1CCCN1C2=O (stereo unspecified),148 to 150 °C
18,N#Cc1c(Cl)c(F)cc(C(=O)Cl)c1Cl,73 to 75 °C
19,COn1c(C)nc2c(NCc3c(C)cccc3C)cc(C(=O)O)cc21,248 to 249 °C
20,Nc1cc(C(F)(F)F)nc(C(=O)O)c1Cl,131 to 133 °C
21,OCc1ccc2[nH]cc(CCCCN3CC=C(c4ccccc4)CC3)c2c1,162 to 164 °C
